In patent publication US12310941B2, “Agent for protection of blood brain spinal cord barrier” (National University Corporation Hokkaido University, priority 2020, dated 2025):

How the values were obtained:
[1] = tested on: Human brain vascular endothelial cells (hCMEC/D3); experiment: Cell viability of human brain vascular endothelial cells under hydrogen peroxide stress; format: cell-based; settings: 450 μM hydrogen peroxide, 6 hours; PrestoBlue; stressed cells without test compound about 0.2; FIG. 17
Method: Human brain vascular endothelial cells (hCMEC/D3, Sigma) were seeded to 5,000 cells/cm^2 on a 96-well plate (Falcon cell culture 96-well multi-well plate, with flat bottom lid) coated with 0.1 mg/ml collagen type 1 (Sigma-Aldrich), and cultured at 37° C. for 24 hours with 5% CO2 using Endothelial Cell Growth Medium (PromoCell, Germany). Bismuth citrate, bismuth subnitrate, bismuth tartrate, or zinc sulfate dissolved in saline, and hydrogen peroxide at a final concentration of 450 μM were added to the medium and incubated for 6 hours to simultaneously stress the cells and treat them with test compounds. The cell viability after loading stress was measured using PrestoBlue (registered trademark) Cell Viability Reagent (Life Technologies).
The cell viability is illustrated in FIG. 17 when the cell viability of the control without hydrogen peroxide stress is 1 and the cell-free is 0. […] Note that the survival rate of the cells subjected to hydrogen peroxide stress and not added the test compound was about 0.2.

[2] = tested on: spinal cord crush injury rats; experiment: Sensory function evaluation (pain stimulus response time) in spinal cord crush injury model; format: in vivo, Lewis rats; settings: single i.p. dose 500 mg/kg immediately after C5 crush injury; vs vehicle; FIG. 13
Method: Crush injuries were created in the fifth cervical cord (C5) of Lewis rats (female, 8 to 14 weeks old, n=14 to 18/group) under anesthesia by applying a pressure of 200 kdyn using an IH impactor. For seven consecutive days from the day of injury creation, 380 to 420 μL of the test compound dissolved in saline or DMSO, or vehicle was intraperitoneally administered. The daily doses were 20 mg/kg body weight of papaverine, 1 mg/kg body weight of mubritinib, and 1 mg/kg body weight of brexpiprazole. After the rats were kept for 8 weeks from injury creation, histological evaluation and sensory function evaluation for pathological conditions at the chronic stage of the spinal cord injury were performed. […] Immediately after creating crush injuries in the fifth cervical cord (C5) of Lewis rats (female, 8 to 14 weeks old, n=8/group) under anesthesia in the same manner as in Example 4, 500 mg/kg of bismuth subnitrate dissolved in saline, or vehicle (saline) was intraperitoneally administered. After the rats were kept for 8 weeks from injury creation, histological evaluation and sensory function evaluation were performed for pathological conditions at the chronic stage of the spinal cord injury.

[3] = tested on: spinal cord crush injury rats; experiment: Histological evaluation in spinal cord crush injury model; format: in vivo, Lewis rats; settings: 8 weeks after injury, vs vehicle; for reactive astrocyte area (GFAP positive area): FIG. 6
Method: Crush injuries were created in the fifth cervical cord (C5) of Lewis rats (female, 8 to 14 weeks old, n=14 to 18/group) under anesthesia by applying a pressure of 200 kdyn using an IH impactor. For seven consecutive days from the day of injury creation, 380 to 420 μL of the test compound dissolved in saline or DMSO, or vehicle was intraperitoneally administered. The daily doses were 20 mg/kg body weight of papaverine, 1 mg/kg body weight of mubritinib, and 1 mg/kg body weight of brexpiprazole. After the rats were kept for 8 weeks from injury creation, histological evaluation and sensory function evaluation for pathological conditions at the chronic stage of the spinal cord injury were performed. After perfusion and fixation of the rats in the same manner as in Example 3, the 2 cm long spinal cord centering the injury site was dissected. The dissected spinal cords were immersed in PBS containing 30% sucrose for overnight and then transected horizontally to prepare frozen sections having a thickness of 30 μm. After washing the sections with TBS, blocking was performed in a blocking buffer (TBS containing 5% normal horse serum and 0.25% Triton X-100) for 1 hour at room temperature. After washing with PBS, the sections were reacted with a primary antibody at 4° C. overnight. As the primary antibody, purified anti-Glial Fibrillary Acidic Protein (GFAP) Antibody (Biolegend) and Anti-NeuN Antibody, clone A60 (Millipore) were diluted with TBS containing 5% normal horse serum and 0.25% Triton X-100 at 1:1000 and at 1:500, respectively, and used. After washing with TBS, the sections were reacted with a secondary antibody at room temperature for 3 hours. As the secondary antibody, both Alexa Fluor 594 donkey anti-mouse IgG (Jackson ImmunoResearch) and Alexa Fluor 594 donkey anti-chicken IgG (Jackson ImmunoResearch) were diluted with TBS containing 3% normal horse serum and 0.25% Triton X-100 at 1:500, and used. After washing with TBS, the sections were observed using BZ-X710 (KEYENCE) to obtain fluorescent images. For the section of the central part of the spinal cord of the rat, the cavity area of the injured part, the area of the region immunostained with the GFAP antibody, and the number of cells immunostained with the NeuN antibody present on the lines 1.5 mm rostal and caudal from the center of the injury were measured. GFAP is a marker for reactive astrocytes and NeuN is a marker for neurons. Immediately after creating crush injuries in the fifth cervical cord (C5) of Lewis rats (female, 8 to 14 weeks old, n=8/group) under anesthesia in the same manner as in Example 4, 500 mg/kg of bismuth subnitrate dissolved in saline, or vehicle (saline) was intraperitoneally administered. After the rats were kept for 8 weeks from injury creation, histological evaluation and sensory function evaluation were performed for pathological conditions at the chronic stage of the spinal cord injury. In the same manner as in Example 4, for the section of the central part of the spinal cord of the rat, the reactive astrocyte area, the cavity area of the injured part, and the number of remaining neurons present on the lines 1.5 mm rostal and caudal from the center of the injury were measured.

[4] = tested on: spinal cord crush injury rats; experiment: Walking function analysis (DigiGait) in spinal cord crush injury model; format: in vivo, Lewis rats; settings: single i.p. dose 500 mg/kg, 8 weeks after injury
Method: Immediately after creating crush injuries in the fifth cervical cord (C5) of Lewis rats (female, 8 to 14 weeks old, n=8/group) under anesthesia in the same manner as in Example 4, 500 mg/kg of bismuth subnitrate dissolved in saline, or vehicle (saline) was intraperitoneally administered. After the rats were kept for 8 weeks from injury creation, histological evaluation and sensory function evaluation were performed for pathological conditions at the chronic stage of the spinal cord injury.
The ground contacting area (the Paw Area) of each leg and the maximum possible walking speed were measured in rats before and 8 weeks after spinal cord injury creation using the DigiGait walking analysis system for small animals (Bioresearch Center Co., Ltd.) according to the manual. […] All rats before spinal cord injury creation were able to walk at a treadmill speed of 20 cm/sec. In the vehicle-administered group, the number of rats that were able to walk at a speed of 15 cm/sec or faster decreased to two individuals, whereas in the bismuth subnitrate-administered group, 6 individuals were able to walk at a speed of 15 cm/sec or faster (FIG. 15).

[5] = tested on: cerebral cortex injury mice; experiment: IgG leakage in cerebral cortex injury model; format: in vivo, C57BL/6 mice; settings: i.p. day before and on day of injury; bismuth subnitrate 500, papaverine 20 mg/kg; vs vehicle; FIG. 16
Method: Protection of the BBSCB function in traumatic brain injury by papaverine, mubritinib, brexpiprazole, and bismuth subnitrate was evaluated by observing suppression of IgG leakage from the injured site using the following method. C57BL/6 mice (male, 8 to 13 weeks old, n=3 to 4/group) were intraperitoneally administered 200 μL of the test compound dissolved in saline or DMSO, or vehicle. The doses were 20 mg/kg body weight of papaverine, 1 mg/kg body weight of mubritinib, 1 mg/kg body weight of brexpiprazole, and 500 mg/kg body weight of bismuth subnitrate. On the next day after administration, injuries were created in the left cerebral hemisphere cortex of the mice under anesthesia by a wire-knife transection method. The mice were immobilized in a stereotaxic frame, and the left lateral 1 mm portion from the bregma of the cranial bone was opened with a microdrill. A wire-knife was inserted into the lateral 1.0 mm from the bregma and 0.5 mm deep in the left cerebral hemisphere, and the wire was extended caudally and pulled up to create the injury. […] For evaluation of the IgG-stained area, taken images were binarized into black and white using Photoshop CS3 (Adobe, CA, USA), and then quantified using Image J (Schneider et al., 2012). […] All quantitative evaluations were performed with the slides blinded. […]

[6] = i.p. daily for 7 days from C5 crush injury, papaverine 20, mubritinib 1, brexpiprazole 1 mg/kg

O=C([O-])CC(O)(CC(=O)[O-])C(=O)[O-].O=C([O-])CC(O)(CC(=O)[O-])C(=O)[O-].[Bi+3].[K+].[K+].[K+] [Bismuth subcitrate, bismuth subcitrate]
cell protective effect on hCMEC/D3 (cell viability) compared with zinc sulfate [1]: significantly higher

O=[N+]([O-])[O-].O=[N+]([O-])[O-].O=[N+]([O-])[O-].O=[N+]([O-])[O-].[Bi+3].[Bi+3].[Bi+3].[Bi+3].[Bi+3].[O-2].[OH-].[OH-].[OH-].[OH-].[OH-].[OH-].[OH-].[OH-].[OH-] [bismuth subnitrate]
response time of the forelimbs to pain stimulus [2]: significantly longer | cell protective effect on hCMEC/D3 (cell viability) compared with zinc sulfate [1]: significantly higher | cavity area of the injured part ([3]; single i.p. dose 500 mg/kg immediately after C5 crush injury, FIG. 11): significantly reduced | number of remaining neurons, rostral side and caudal side of the injured part ([3]; single i.p. dose 500 mg/kg immediately after C5 crush injury, FIG. 12): increased both on the rostral side and the caudal side | number of rats able to walk at a speed of 15 cm/sec or faster ([4]; n=8/group, vehicle group two individuals, FIG. 15): 6 individuals | ground contacting area (the Paw Area) on one side ([4]; vs vehicle, FIG. 14): significantly increased | leakage of IgG from the injured site of the cerebral cortex [5]: significantly suppressed

O=c1ccc2ccc(OCCCCN3CCN(c4cccc5sccc45)CC3)cc2[nH]1 [brexpiprazole, 7-[4-[4-(1-benzothiophen-4-yl)piperazin-1-yl]butoxy]-1H-quinolin-2-one]
reactive astrocyte area (GFAP positive area) [3, 6]: significantly reduced

COc1ccc(Cc2nccc3cc(OC)c(OC)cc23)cc1OC [papaverine, 1-[(3,4-dimethoxyphenyl)methyl]-6,7-dimethoxyisoquinoline]
reactive astrocyte area (GFAP positive area) [3, 6]: significantly reduced | cavity area of the injured part ([3]; i.p. daily for 7 days from C5 crush injury, papaverine 20, mubritinib 1, brexpiprazole 1 mg/kg, FIG. 7): significantly reduced | number of remaining neurons (NeuN-positive cells) ([3]; i.p. daily for 7 days from C5 crush injury, papaverine 20, mubritinib 1, brexpiprazole 1 mg/kg, FIG. 8): significantly increased | leakage of IgG from the injured site of the cerebral cortex [5]: significantly suppressed

bismuth tartrate
cell protective effect on hCMEC/D3 (cell viability) compared with zinc sulfate [1]: significantly higher
